The CheMixHub viscosity set
“And” between values parts separate entries of the source, which are not always exact repeats. Equal entries are not always repeated. ± gives the uncertainty stated by the source.

Assay: xn = mol fraction of the nth substance listed

O=S(=O)(O)O + COc1ccccc1
viscosity [mPa·s], 101 kPa
Conditions	x1 = 0.0892	x1 = 0.2274	x1 = 0.5064	x1 = 0.6238	x1 = 0.6321	x1 = 0.6494	x1 = 0.679	x1 = 0.7207	x1 = 0.746	x1 = 0.9241
293.15 K	1.46 ± 0.04	3.17 ± 0.2	41.69 ± 2.3	260.3 ± 12	172.8 ± 6.9	263.5 ± 12	317.9 ± 15	262.1 ± 12	201.3 ± 8.1	34.68 ± 1.2
303.15 K	1.35 ± 0.04	1.79 ± 0.05	30.05 ± 0.8	166 ± 7	100.8 ± 3.1	141.3 ± 5.2	182 ± 7.2	151.4 ± 5.6	131.3 ± 4.5	22.53 ± 0.61
313.15 K	1.25 ± 0.03	2 ± 0.05	23.8 ± 0.63	87.9 ± 3.2	70.2 ± 1.9	79.44 ± 2.4	105 ± 3.3	83.3 ± 2.5	71.9 ± 2.1	16.6 ± 0.44
323.15 K	1.15 ± 0.03	2.58 ± 0.07	17.8 ± 0.47	72.9 ± 2.4	42.1 ± 1.2	47.4 ± 1.4	83.18 ± 2.4	50.18 ± 1.4	44.8 ± 1.2	11.9 ± 0.32

CCNc1ccccc1 + CCC(=O)O
308.15 K, 101.33 kPa
Conditions	viscosity [mPa·s]
x2 = 0.1567	1.706 ± 0.051
x2 = 0.2906	1.897 ± 0.052
x2 = 0.4142	2.167 ± 0.052
x2 = 0.5224	2.302 ± 0.053
x2 = 0.6217	2.533 ± 0.053
x2 = 0.7121	2.575 ± 0.053
x2 = 0.7933	2.379 ± 0.053
x2 = 0.8787	1.916 ± 0.052
x2 = 0.9032	1.691 ± 0.051
x2 = 0.9363	1.412 ± 0.051
x2 = 0.9694	1.113 ± 0.051

NC(=O)CC[C@H](N)C(=O)O + O
viscosity, 101 kPa
Conditions	x1 = 0.00045	x1 = 0.0009	x1 = 0.001	x1 = 0.00135	x1 = 0.001798	x1 = 0.002247	x1 = 0.002695	x1 = 0.003
298.15 K	0.897 ± 0.021 mPa·s	–	–	0.909 ± 0.021 mPa·s	0.915 ± 0.021 mPa·s	–	0.9269 ± 0.021 mPa·s	0.9238 ± 0.019 mPa·s and 0.9238 ± 0.02 mPa·s
303.15 K	0.8032 ± 0.018 mPa·s	–	0.812 ± 0.017 mPa·s	0.8135 ± 0.019 mPa·s	0.8186 ± 0.019 mPa·s	0.8237 ± 0.019 mPa·s	0.8288 ± 0.019 mPa·s	0.8262 ± 0.017 mPa·s and 0.8262 ± 0.018 mPa·s
308.15 K	–	0.7288 ± 0.017 mPa·s	0.7318 ± 0.015 mPa·s and 0.7318 ± 0.016 mPa·s	–	–	–	0.7464 ± 0.017 mPa·s	0.7442 ± 0.016 mPa·s
313.15 K	–	0.6613 ± 0.015 mPa·s	–	0.6651 ± 0.015 mPa·s	0.6689 ± 0.015 mPa·s	0.6727 ± 0.015 mPa·s	0.6765 ± 0.016 mPa·s	0.6746 ± 0.014 mPa·s
318.15 K	0.6013 ± 0.014 mPa·s	0.6048 ± 0.014 mPa·s	0.6071 ± 0.013 mPa·s	0.6082 ± 0.014 mPa·s	0.6115 ± 0.014 mPa·s	0.6148 ± 0.014 mPa·s	0.6181 ± 0.014 mPa·s	0.6166 ± 0.013 mPa·s

ClCCl + C1CCOC1
298 K, 101 kPa
Conditions	viscosity [mPa·s]
x1 = 0.0981	0.455 ± 0.015
x1 = 0.2079	0.454 ± 0.015
x1 = 0.3064	0.453 ± 0.015
x1 = 0.3509	0.452 ± 0.015
x1 = 0.4032	0.451 ± 0.015
x1 = 0.4519	0.45 ± 0.015
x1 = 0.4994	0.449 ± 0.015
x1 = 0.5531	0.447 ± 0.015
x1 = 0.5994	0.445 ± 0.015
x1 = 0.6477	0.443 ± 0.015
x1 = 0.6696	0.441 ± 0.015
x1 = 0.7756	0.437 ± 0.015
x1 = 0.7999	0.435 ± 0.015
x1 = 0.9011	0.428 ± 0.015

C[Si]1(C)O[Si](C)(C)O[Si](C)(C)O[Si](C)(C)O1 + CCCCCCCCCC
viscosity [mPa·s], 103 kPa
Conditions	298.15 K	308.15 K	318.15 K
x1 = 0.05	0.844 ± 0.04	0.733 ± 0.04	0.645 ± 0.04
x1 = 0.1	0.867 ± 0.041	0.753 ± 0.04	0.664 ± 0.04
x1 = 0.1501	0.899 ± 0.041	0.778 ± 0.04	0.683 ± 0.04
x1 = 0.2	0.931 ± 0.041	0.801 ± 0.04	0.703 ± 0.04
x1 = 0.25	0.965 ± 0.041	0.831 ± 0.04	0.725 ± 0.04
x1 = 0.3	1.007 ± 0.041	0.865 ± 0.041	0.753 ± 0.04
x1 = 0.35	1.047 ± 0.041	0.895 ± 0.041	0.778 ± 0.04
x1 = 0.3999	1.086 ± 0.041	0.93 ± 0.041	0.802 ± 0.04
x1 = 0.45	1.134 ± 0.041	0.964 ± 0.041	0.833 ± 0.041
x1 = 0.5	1.183 ± 0.041	1.006 ± 0.041	0.867 ± 0.041
x1 = 0.5501	1.232 ± 0.041	1.048 ± 0.041	0.909 ± 0.041
x1 = 0.6	1.292 ± 0.041	1.097 ± 0.041	0.943 ± 0.041
x1 = 0.65	1.358 ± 0.041	1.15 ± 0.041	0.987 ± 0.041
x1 = 0.6999	1.431 ± 0.042	1.209 ± 0.041	1.035 ± 0.041
x1 = 0.75	1.511 ± 0.042	1.273 ± 0.041	1.087 ± 0.041
x1 = 0.8	1.6 ± 0.042	1.345 ± 0.042	1.145 ± 0.041
x1 = 0.85	1.699 ± 0.042	1.423 ± 0.042	1.208 ± 0.041
x1 = 0.9	1.811 ± 0.043	1.511 ± 0.042	1.278 ± 0.041
x1 = 0.95	1.936 ± 0.043	1.61 ± 0.042	1.356 ± 0.042

C1CCC2=[NH+]CCCN2CC1.c1c[n-]cn1 + CS(C)=O
298.15 K, 100 kPa
Conditions	viscosity [mPa·s]
x1 = 0.0998	3.113 ± 0.13
x1 = 0.1996	4.415 ± 0.18
x1 = 0.2995	6.054 ± 0.25
x1 = 0.3994	8.104 ± 0.34
x1 = 0.4994	10.52 ± 0.44
x1 = 0.5994	13.65 ± 0.57
x1 = 0.6995	17.39 ± 0.73
x1 = 0.7996	22.07 ± 0.93
x1 = 0.8998	27.44 ± 1.2

CCOC=O + CCCC(C)O
viscosity [mPa·s], 100 kPa
Conditions	x1 = 0.0826	x1 = 0.1603	x1 = 0.2396	x1 = 0.3504	x1 = 0.4402	x1 = 0.5595	x1 = 0.6497	x1 = 0.74	x1 = 0.8501	x1 = 0.9381
293.15 K	2.84 ± 0.06	2.16 ± 0.04	1.73 ± 0.04	1.34 ± 0.03	1.12 ± 0.02	0.91 ± 0.02	0.78 ± 0.02	0.65 ± 0.02	0.52 ± 0.01	0.45 ± 0.01
298.15 K	2.5 ± 0.05	1.96 ± 0.04	1.57 ± 0.03	1.23 ± 0.03	1.02 ± 0.02	0.85 ± 0.02	0.73 ± 0.02	0.6 ± 0.01	0.49 ± 0.01	0.43 ± 0.01
303.15 K	2.2 ± 0.05	1.74 ± 0.04	1.4 ± 0.03	1.11 ± 0.02	0.93 ± 0.02	0.77 ± 0.02	0.67 ± 0.02	0.57 ± 0.01	0.46 ± 0.01	0.41 ± 0.01
308.15 K	1.9 ± 0.04	1.53 ± 0.03	1.23 ± 0.03	0.98 ± 0.02	0.84 ± 0.02	0.7 ± 0.02	0.6 ± 0.01	0.52 ± 0.01	0.43 ± 0.01	0.39 ± 0.01
313.15 K	1.6 ± 0.03	1.3 ± 0.03	1.05 ± 0.02	0.86 ± 0.02	0.75 ± 0.02	0.63 ± 0.01	0.54 ± 0.01	0.46 ± 0.01	0.4 ± 0.01	0.36 ± 0.01
318.15 K	1.32 ± 0.03	1.06 ± 0.02	0.89 ± 0.02	0.73 ± 0.02	0.64 ± 0.02	0.54 ± 0.01	0.47 ± 0.01	0.41 ± 0.01	0.36 ± 0.01	0.33 ± 0.01
323.15 K	1.06 ± 0.02	0.84 ± 0.02	0.7 ± 0.02	0.59 ± 0.01	0.53 ± 0.01	0.45 ± 0.01	0.4 ± 0.01	0.36 ± 0.01	0.33 ± 0.01	0.31 ± 0.01

CCC(=O)[O-].CC[NH+]1CCNCC1 + CCO
Conditions	viscosity [mPa·s]
298.15 K, 101 kPa, x2 = 0.3033	75.85 ± 1.4

O=P([O-])(O)O.[K+] + O
viscosity [mPa·s], 101 kPa
Conditions	x1 = 0.0018	x1 = 0.0054	x1 = 0.0089	x1 = 0.012	x1 = 0.016
298.15 K	0.9211 ± 0.0084	0.9772 ± 0.0089	1.037 ± 0.0095	1.11 ± 0.01	1.186 ± 0.011
303.15 K	0.8252 ± 0.0076	0.8757 ± 0.0081	0.9339 ± 0.0087	0.9884 ± 0.0093	1.062 ± 0.01
308.15 K	0.7468 ± 0.007	0.7881 ± 0.0074	0.837 ± 0.008	0.8844 ± 0.0085	0.9335 ± 0.0094

ClCCCl + CCO
viscosity [mPa·s], 101 kPa
Conditions	303.15 K	313.15 K	323.15 K
x1 = 0.1495	0.842 ± 0.084	–	–
x1 = 0.3026	0.736 ± 0.074	–	–
x1 = 0.4507	0.681 ± 0.068	–	–
x1 = 0.6007	0.662 ± 0.066	–	–
x1 = 0.752	0.659 ± 0.066	–	–
x1 = 0.8706	0.659 ± 0.066	–	–
x2 = 0.064	0.6974 ± 0.018	0.6126 ± 0.017	0.5529 ± 0.016
x2 = 0.1215	0.6779 ± 0.018	0.5938 ± 0.017	0.5336 ± 0.016
x2 = 0.2295	0.6654 ± 0.018	0.5787 ± 0.017	0.512 ± 0.016
x2 = 0.3279	0.6668 ± 0.017	0.5767 ± 0.016	0.5115 ± 0.016
x2 = 0.3912	0.6702 ± 0.017	0.5806 ± 0.016	0.5107 ± 0.016
x2 = 0.4726	0.6873 ± 0.018	0.5896 ± 0.016	0.5161 ± 0.016
x2 = 0.5989	0.7253 ± 0.018	0.6178 ± 0.017	0.536 ± 0.016
x2 = 0.752	0.7907 ± 0.018	0.6671 ± 0.017	0.5723 ± 0.016
x2 = 0.8819	0.8746 ± 0.019	0.7374 ± 0.018	0.628 ± 0.017

O=S(=O)(O)O + O
100 kPa
Conditions	viscosity [mPa·s]
303.15 K, x1 = 0.007147	0.8615 ± 0.086
313.15 K, x1 = 0.0566	1.125 ± 0.11
